ChEMBL document CHEMBL1201862, “PubChem BioAssay data set” (2004)
Activity calls are given as the source filed them.

What was measured:
[1] = target: Sphingosine 1-phosphate receptor 2 (Homo sapiens, UniProt O95136); test: Dose Response Cell Based Assay for Agonists of the S1P2 Receptor. [Related pubchem assays: 729, 736, 843 ]; format: functional
[2] = target: Ubiquitin carboxyl-terminal hydrolase BAP1 (Homo sapiens, UniProt Q92560); test: BAP1 deubiquitinase inhibitors, dose response, biochemical (AID 714); format: functional
Sequence of Ubiquitin carboxyl-terminal hydrolase BAP1 (Q92560 whole entry): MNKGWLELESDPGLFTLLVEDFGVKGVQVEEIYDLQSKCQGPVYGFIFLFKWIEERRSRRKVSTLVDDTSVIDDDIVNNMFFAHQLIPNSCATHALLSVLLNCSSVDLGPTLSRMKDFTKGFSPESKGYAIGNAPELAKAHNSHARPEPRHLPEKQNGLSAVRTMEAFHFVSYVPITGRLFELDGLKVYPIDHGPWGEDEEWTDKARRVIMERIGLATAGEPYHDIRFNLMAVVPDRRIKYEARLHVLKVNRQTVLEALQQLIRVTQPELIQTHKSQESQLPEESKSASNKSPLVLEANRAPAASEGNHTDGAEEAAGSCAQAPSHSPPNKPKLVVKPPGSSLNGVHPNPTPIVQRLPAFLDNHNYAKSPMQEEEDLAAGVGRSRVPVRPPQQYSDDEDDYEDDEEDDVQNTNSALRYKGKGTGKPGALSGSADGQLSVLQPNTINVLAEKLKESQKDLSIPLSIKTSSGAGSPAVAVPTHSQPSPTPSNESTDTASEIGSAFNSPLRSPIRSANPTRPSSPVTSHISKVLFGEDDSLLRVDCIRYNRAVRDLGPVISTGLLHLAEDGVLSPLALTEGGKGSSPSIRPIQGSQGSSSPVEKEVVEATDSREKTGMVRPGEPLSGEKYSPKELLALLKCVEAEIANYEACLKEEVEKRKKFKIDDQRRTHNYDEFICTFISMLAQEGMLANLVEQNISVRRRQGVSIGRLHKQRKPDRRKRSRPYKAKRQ

[3] = target: Glutathione-S-transferase (Schistosoma japonicum, UniProt Q26513); test: biotin-GST/anti-GST TR-FRET signal inhibitors, dose response, artefact control for Vif-APOBEC3G degradation inhibitor project, biochemical (AID 1117362); format: functional
Sequence of Glutathione-S-transferase (Q26513 whole entry): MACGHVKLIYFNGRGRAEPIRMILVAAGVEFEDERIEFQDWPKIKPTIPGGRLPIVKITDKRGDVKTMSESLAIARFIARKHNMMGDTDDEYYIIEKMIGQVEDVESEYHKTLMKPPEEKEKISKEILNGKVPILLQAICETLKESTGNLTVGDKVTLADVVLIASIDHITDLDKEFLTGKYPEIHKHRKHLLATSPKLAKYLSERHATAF

[4] = target: T1, Bcl-2-like protein 10 (Homo sapiens, UniProt Q9HD36); test: displacers of TR3 peptide from Bcl-B, primary screen, selectivity assay for Bfl-1 inhibitor project, biochemical, fluorescence polarization, FITC-TR3 peptide (AID 748);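 further: fluorescence polarization from a fluorescein-labelled TR3 peptide binding purified Bcl-B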
T1 sequence (Q9HD36 whole entry): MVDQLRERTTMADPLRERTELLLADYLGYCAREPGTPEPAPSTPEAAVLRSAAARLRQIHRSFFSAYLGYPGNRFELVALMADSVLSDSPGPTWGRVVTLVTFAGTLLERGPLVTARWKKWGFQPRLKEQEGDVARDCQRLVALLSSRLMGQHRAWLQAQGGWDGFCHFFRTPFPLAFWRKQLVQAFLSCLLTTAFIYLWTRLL

[5] = Vero cell cytotoxicity, dose response, cytotoxicity control for Vif-APOBEC3G degradation inhibitor project, Vero cells (AID 1117358); format: functional; conditions: Human immunodeficiency virus 1, Vero
[6] = inhibitors of Vif binding to APOBEC3G peptide, primary screen, biochemical, TR-FRET, GST-Vif 1-94, biotin-A3G peptide, dose response retest (AID 1117319); format: functional;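 further: TR-FRET signal of purified GST-Vif binding a biotinylated A3G peptide; inhibitors lower the FRET signal by blocking Vif and A3G binding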
[7] = target: T2, Caspase-3 (Homo sapiens, UniProt P42574); format: functional;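 further: Dose-response selectivity test against caspase-3 for candidate inhibitors of sentrin-specific proteases (SENPs)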
T2 sequence (P42574 whole entry): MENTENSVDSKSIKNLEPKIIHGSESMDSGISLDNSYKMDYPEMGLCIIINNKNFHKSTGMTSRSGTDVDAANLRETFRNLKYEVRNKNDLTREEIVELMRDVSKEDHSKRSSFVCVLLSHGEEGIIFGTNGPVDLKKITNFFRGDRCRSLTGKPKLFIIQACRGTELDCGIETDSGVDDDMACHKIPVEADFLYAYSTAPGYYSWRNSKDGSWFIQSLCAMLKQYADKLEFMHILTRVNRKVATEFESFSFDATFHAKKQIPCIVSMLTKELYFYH

[8] = target: T3, Sentrin-specific protease 7 (Homo sapiens, UniProt Q9BQF6); format: functional;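 further: Luminescence-based dose-response confirmation of ultra-high-throughput screening hits, measuring inhibition of SENP7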
T3 sequence (Q9BQF6 whole entry): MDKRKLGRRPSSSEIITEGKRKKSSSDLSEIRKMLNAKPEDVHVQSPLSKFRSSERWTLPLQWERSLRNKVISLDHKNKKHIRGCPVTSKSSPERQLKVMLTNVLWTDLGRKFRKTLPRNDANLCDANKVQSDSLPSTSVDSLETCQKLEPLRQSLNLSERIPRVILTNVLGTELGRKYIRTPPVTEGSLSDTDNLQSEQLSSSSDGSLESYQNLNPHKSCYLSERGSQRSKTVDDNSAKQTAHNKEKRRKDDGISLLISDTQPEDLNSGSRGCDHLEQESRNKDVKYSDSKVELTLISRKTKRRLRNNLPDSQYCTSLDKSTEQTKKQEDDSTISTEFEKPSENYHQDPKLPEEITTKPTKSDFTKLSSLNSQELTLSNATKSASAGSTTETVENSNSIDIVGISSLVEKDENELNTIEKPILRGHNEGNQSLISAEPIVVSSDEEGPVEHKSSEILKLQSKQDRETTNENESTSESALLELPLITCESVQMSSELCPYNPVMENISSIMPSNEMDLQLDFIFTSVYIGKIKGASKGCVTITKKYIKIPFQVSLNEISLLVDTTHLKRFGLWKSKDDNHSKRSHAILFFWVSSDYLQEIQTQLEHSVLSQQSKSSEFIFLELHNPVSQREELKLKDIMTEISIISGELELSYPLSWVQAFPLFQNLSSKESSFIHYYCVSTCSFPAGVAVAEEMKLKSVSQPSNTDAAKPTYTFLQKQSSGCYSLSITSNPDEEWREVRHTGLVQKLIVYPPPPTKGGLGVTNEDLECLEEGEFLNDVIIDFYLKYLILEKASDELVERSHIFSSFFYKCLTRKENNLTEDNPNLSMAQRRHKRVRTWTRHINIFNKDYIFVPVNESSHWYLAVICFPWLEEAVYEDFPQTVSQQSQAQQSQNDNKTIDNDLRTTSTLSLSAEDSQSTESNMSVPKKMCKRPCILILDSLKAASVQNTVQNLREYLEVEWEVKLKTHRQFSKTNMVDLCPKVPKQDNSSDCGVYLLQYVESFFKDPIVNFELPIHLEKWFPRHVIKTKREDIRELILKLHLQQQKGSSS

[9] = target: Caspase-6 (Homo sapiens, UniProt P55212); test: human caspase-6 inhibitors, dose response, biochemical, VEID-R110 fluorescence, cherry-pick (AID 720632)
Sequence of Caspase-6 (P55212 24-179 limits assumed): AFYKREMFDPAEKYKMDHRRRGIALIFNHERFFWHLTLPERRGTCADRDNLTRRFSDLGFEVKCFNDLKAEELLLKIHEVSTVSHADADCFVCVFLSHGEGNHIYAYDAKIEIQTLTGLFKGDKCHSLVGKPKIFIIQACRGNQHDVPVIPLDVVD
Sequence of Caspase-6 (P55212 194-293 limits assumed): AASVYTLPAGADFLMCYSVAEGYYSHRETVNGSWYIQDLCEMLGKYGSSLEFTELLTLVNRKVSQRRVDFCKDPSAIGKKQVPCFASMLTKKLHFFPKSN

[10] = target: T4, Mitochondrial peptide methionine sulfoxide reductase (Bos taurus, UniProt P54149); test: Absorbance-based biochemical high throughput dose response assay for activators of Methionine sulfoxide reductase A (MsrA).; format: functional
T4 sequence (P54149 whole entry): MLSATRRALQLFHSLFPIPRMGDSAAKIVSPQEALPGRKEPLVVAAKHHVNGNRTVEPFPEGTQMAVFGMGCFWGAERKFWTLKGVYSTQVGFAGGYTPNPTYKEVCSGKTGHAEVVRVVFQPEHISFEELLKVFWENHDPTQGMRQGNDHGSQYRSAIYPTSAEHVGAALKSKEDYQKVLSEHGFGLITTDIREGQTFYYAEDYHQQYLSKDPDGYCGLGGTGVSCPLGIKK

[11] = target: Caspase-7 (Homo sapiens, UniProt P55210); test: human caspase-7 inhibitors, dose response, selectivity assay for caspase-6 inhibitor project, biochemical, DEVD-R110 fluorescence, cherry-pick (AID 743295)
Sequence of Caspase-7 (P55210 24-198 limits assumed): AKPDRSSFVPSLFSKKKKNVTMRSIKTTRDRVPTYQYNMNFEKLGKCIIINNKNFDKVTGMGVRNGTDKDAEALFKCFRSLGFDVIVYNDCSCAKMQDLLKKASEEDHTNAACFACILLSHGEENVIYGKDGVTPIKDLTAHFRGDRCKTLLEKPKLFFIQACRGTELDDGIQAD
Sequence of Caspase-7 (P55210 207-303 limits assumed): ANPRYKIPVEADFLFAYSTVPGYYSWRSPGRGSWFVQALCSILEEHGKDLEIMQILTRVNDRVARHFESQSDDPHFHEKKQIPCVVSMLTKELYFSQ

[12] = target: Caspase-8 (Homo sapiens, UniProt Q14790); test: caspase-8 inhibition counter-screen, dose response, selectivity assay for caspase-6 inhibitor project, biochemical, Z-IETD-R110 fluorescence, cherry-picked samples (AID 743294)
Sequence of Caspase-8 (Q14790 217-374 limits assumed): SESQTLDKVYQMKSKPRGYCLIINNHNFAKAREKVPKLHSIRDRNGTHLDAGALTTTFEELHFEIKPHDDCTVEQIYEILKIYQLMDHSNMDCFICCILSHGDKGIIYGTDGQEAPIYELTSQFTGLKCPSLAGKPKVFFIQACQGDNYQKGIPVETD
Sequence of Caspase-8 (Q14790 385-479 limits assumed): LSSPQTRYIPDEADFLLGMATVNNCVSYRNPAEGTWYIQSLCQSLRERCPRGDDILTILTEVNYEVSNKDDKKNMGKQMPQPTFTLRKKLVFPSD

[13] = target: T5, Sentrin-specific protease 8 (Homo sapiens, UniProt Q96LD8); format: functional;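 further: luminescence read-out of SENP8 inhibition, dose-response confirmation following an ultra-high-throughput screen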
T5 sequence (Q96LD8 whole entry): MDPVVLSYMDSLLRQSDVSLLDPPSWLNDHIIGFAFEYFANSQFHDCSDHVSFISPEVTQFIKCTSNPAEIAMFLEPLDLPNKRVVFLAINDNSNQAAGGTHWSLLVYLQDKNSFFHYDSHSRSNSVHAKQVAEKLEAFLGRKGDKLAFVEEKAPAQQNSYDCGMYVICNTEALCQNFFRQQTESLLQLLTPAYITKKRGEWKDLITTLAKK

[14] = target: T6, Sentrin-specific protease 6 (Homo sapiens, UniProt Q9GZR1); format: functional;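 further: Luminescence-based dose-response confirmatory assay of SENP6 inhibition, following up an ultra-high-throughput screen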
T6 sequence (Q9GZR1 whole entry): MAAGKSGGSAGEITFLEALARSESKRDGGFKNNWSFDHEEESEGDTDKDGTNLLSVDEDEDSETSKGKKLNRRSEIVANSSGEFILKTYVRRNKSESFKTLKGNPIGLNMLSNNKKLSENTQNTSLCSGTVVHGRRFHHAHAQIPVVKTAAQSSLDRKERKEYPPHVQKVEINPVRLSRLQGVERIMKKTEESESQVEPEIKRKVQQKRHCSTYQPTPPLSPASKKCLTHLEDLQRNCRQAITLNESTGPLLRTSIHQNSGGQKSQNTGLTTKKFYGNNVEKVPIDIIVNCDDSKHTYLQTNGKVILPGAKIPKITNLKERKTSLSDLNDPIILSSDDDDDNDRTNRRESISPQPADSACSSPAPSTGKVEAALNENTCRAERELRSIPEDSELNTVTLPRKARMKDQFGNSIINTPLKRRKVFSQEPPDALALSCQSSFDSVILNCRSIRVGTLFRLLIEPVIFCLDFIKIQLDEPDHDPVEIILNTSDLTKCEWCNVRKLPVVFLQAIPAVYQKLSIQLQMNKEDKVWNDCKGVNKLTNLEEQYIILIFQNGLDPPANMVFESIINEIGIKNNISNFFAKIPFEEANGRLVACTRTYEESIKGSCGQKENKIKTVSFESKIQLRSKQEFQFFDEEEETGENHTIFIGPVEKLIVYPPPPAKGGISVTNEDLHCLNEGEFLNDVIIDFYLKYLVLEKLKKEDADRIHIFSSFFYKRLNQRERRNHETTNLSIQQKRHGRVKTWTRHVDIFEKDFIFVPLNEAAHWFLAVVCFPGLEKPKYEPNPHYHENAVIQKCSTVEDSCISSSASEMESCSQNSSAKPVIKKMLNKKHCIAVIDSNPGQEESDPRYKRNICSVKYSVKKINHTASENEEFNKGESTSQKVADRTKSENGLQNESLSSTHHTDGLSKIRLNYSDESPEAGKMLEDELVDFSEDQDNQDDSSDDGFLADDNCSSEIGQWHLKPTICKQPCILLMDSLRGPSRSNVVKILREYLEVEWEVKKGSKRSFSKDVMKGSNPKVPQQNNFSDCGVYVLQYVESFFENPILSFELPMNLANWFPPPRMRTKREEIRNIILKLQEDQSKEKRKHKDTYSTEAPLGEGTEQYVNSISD

[15] = CTGF mRNA reduction under YAP1 overexpression, dose response, mechanism study for YAP1 pathway inhibitor project, DLD1 cells, RT-qPCR, cherry-pick (AID 1053127); format: functional, cell-based; conditions: DLD-1
[16] = target: G-protein coupled receptor 183 (Homo sapiens, UniProt P32249); test: SAR confirmation of small molecule antagonists of the EBI2 receptor via a luminescent beta-arrestin assa.; format: functional
Sequence of G-protein coupled receptor 183 (P32249 whole entry): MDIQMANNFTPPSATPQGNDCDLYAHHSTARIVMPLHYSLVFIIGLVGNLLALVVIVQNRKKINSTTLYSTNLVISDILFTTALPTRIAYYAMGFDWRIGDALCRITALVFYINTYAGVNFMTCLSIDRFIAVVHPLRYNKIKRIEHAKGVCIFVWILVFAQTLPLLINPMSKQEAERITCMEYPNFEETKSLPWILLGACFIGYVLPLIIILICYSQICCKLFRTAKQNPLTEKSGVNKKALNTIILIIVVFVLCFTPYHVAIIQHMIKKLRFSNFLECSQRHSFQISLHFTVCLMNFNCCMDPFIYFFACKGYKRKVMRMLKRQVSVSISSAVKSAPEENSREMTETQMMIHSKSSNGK

[17] = target: Phospholipase D1 (Homo sapiens, UniProt Q13393); test: PLD1 Cellular Concentration Response Study.; format: functional
Sequence of Phospholipase D1 (Q13393 whole entry): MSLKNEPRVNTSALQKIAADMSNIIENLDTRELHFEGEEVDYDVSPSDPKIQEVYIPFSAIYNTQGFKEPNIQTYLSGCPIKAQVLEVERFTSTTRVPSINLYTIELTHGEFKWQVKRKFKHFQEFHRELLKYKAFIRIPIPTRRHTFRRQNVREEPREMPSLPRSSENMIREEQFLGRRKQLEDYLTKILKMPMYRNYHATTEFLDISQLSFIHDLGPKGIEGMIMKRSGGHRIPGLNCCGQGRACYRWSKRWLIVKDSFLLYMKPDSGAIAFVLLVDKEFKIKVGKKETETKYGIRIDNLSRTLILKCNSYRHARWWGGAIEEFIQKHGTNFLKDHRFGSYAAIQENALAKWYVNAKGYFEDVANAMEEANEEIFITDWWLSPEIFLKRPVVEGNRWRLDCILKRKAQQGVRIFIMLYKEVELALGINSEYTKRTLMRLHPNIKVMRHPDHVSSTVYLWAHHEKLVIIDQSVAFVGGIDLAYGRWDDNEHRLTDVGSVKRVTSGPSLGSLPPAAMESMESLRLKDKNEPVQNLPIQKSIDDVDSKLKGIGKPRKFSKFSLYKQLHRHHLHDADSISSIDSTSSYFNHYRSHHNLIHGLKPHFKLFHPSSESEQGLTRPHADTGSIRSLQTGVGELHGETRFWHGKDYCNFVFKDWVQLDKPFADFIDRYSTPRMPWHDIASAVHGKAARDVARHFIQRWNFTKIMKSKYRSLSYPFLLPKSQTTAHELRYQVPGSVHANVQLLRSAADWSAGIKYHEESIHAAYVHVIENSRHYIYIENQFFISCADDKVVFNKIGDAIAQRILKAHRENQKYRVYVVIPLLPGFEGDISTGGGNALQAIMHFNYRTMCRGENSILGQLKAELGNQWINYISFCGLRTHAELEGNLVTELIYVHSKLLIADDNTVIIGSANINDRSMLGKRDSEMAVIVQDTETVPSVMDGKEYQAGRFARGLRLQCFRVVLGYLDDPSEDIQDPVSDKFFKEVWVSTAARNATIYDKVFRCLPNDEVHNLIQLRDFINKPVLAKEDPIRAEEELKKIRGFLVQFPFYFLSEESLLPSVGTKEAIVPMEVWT

[18] = target: Phospholipase D2 (Homo sapiens, UniProt O14939); test: PLD2 Cellular Concentration Response Study.; format: functional
[19] = HepG2 cell cytotoxicity, dose response, cytotoxicity control, cherry-picked samples (AID 1159577); format: functional, cell-based
[20] = P. falciparum Dd2 growth inhibitors, dose response, SYBR Green, cherry-picked samples (AID 1159567); format: functional, cell-based
[21] = P. falciparum 3D7-ScDHODH growth inhibitors, dose response, SYBR Green, dry powder samples (AID 1159570); format: functional, cell-based;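 further: parasite growth measured after 72 hours of compound exposure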
[22] = P. falciparum ATP4 D1247Y mutant growth inhibitors, dose response, NITD609-resistant line, SYBR Green, dry powder (AID 1159571); format: functional, cell-based;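 further: parasites synchronized at ring stage by sorbitol before testing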
[23] = HepG2 cell cytotoxicity, dose response, cytotoxicity control, plate reader, dry powder samples (AID 1159569); format: functional, cell-based;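 further: inhibitor potency with signal falling toward the positive control level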
[24] = P. falciparum Dd2 growth inhibitors, dose response, SYBR Green, dry powder samples (AID 1159566); format: functional, cell-based;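 further: potency for growth inhibition with lower SYBR green DNA signal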
[25] = target: Metabotropic glutamate receptor 7 (Homo sapiens, UniProt Q14831); test: mGlu7 positive allosteric modulators, dose response, cell-based, calcium mobilization, Galpha15 (AID 743384); format: functional
Sequence of Metabotropic glutamate receptor 7 (Q14831 whole entry): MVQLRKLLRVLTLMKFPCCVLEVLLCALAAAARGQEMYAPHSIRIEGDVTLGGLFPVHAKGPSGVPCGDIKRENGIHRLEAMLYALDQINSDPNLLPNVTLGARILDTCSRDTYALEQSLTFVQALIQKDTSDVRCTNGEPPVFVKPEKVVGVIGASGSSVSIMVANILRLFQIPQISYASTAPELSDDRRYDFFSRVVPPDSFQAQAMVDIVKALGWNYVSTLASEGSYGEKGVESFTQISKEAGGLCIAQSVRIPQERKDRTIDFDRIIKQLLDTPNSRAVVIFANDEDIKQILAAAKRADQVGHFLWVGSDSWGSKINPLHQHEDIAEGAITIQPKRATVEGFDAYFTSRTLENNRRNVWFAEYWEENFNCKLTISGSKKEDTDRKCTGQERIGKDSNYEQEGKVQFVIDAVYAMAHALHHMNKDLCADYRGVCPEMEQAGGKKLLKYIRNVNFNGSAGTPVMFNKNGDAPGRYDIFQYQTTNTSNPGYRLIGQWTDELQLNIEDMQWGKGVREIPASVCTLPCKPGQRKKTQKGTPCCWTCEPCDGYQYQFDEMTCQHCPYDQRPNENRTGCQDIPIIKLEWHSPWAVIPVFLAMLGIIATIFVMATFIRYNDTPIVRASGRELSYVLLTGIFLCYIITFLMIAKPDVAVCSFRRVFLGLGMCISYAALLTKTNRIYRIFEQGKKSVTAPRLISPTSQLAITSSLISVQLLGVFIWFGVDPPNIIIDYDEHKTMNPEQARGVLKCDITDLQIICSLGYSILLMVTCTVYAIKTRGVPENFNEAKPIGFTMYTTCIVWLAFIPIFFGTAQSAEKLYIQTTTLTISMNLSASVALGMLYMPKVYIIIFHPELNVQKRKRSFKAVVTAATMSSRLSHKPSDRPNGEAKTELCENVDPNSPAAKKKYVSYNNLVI

[26] = HepG2 cell cytotoxicity, dose response, cytotoxicity control, ATP luminescence, dry powder, set 2 (AID 743129); format: functional, cell-based
[27] = A549 cell cytotoxicity, dose response, cytotoxicity control, CellTiter-Glo luminescence, dry powder, set 5 (AID 743158); format: functional, cell-based
[28] = HEK293 cell cytotoxicity, dose response, cytotoxicity control, ATP luminescence, dry powder, set 3 (AID 743131); format: functional, cell-based
[29] = Dose-response inhibition of insulin secretion in a rat insulinoma line at 5 mM glucose (AID 1117331); format: functional, cell-based; conditions: INS-1E
[30] = cells; format: functional, cell-based; conditions: INS-1E

Sequence of Sphingosine 1-phosphate receptor 2 (O95136 whole entry): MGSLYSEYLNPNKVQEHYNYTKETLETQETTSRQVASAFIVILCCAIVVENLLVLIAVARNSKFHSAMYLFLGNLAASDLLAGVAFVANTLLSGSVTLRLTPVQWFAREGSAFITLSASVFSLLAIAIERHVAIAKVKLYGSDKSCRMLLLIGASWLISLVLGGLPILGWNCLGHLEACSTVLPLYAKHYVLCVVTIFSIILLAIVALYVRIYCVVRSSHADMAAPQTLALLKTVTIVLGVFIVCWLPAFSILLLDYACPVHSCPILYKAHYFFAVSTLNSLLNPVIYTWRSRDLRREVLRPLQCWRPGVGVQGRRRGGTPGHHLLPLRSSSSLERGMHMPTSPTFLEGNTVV

Compound: Oc1nc(-c2cccs2)nc2ccccc12
- EC50 [1]: > 50 µM (not active)

Compound: Cc1sc(NC(=O)CSc2nnc(C)c(=O)[nH]2)c(C#N)c1C
- IC50 [2]: > 50 µM (not active)

Compound: Cc1ccc(OCCSc2nnc(-c3ccncc3)n2C)cc1
- IC50 [3]: > 100 µM (active)
- IC50 [4]: > 100 µM (inactive)

Compound: COc1ccccc1Cn1c(-c2ccccc2OC)nc2ccccc21
- CC50 [5]: > 40 µM (active)
- IC50 [6]: > 100 µM (active)

Compound: O=C1CN(C(=O)COC(=O)c2ccc([N+](=O)[O-])s2)c2ccccc2N1
- IC50 [7]: 96.6 µM (active)
- IC50 [8]: 92 µM (active)
- AC50 [9]: 3.32 µM (active)
- EC50 [10]: 17.4 µM (inactive)
- AC50 [11]: 20 µM (active)
- AC50 [12]: 19.6 µM (active)
- IC50 [13]: 47.9 µM (active)
- IC50 [14]: 52.9 µM (active)

Compound: COc1cccc(-c2ccc([C@@H]3[C@@H](CO)N4CCCCN(C(=O)Cc5ccncc5)C[C@@H]34)cc2)c1
- AC50 [15]: > 26 µM (inactive)

Compound: O=C(/C=C/c1ccc(F)cc1)N1CCN(S(=O)(=O)c2ccccc2F)CC1
- IC50 [16]: 19.4 nM (active)

Compound: O=C(NCCN1CCC2(CC1)C(=O)NCN2Cc1ccc(Cl)cc1)c1ccc2ccccc2c1
- IC50 [17]: 6.78 µM (active)
- IC50 [18]: 1.54 µM (active)

Compound: O=C(C1CCC1)N1C[C@@H]2N[C@H](C1)[C@@H]2c1ccc(/C=C/c2ccccc2)cc1
- AC50 [19]: 11.5 µM (active)
- AC50 [20]: 3.76 µM (active)

Compound: O=C(Nc1ccc(C(F)(F)F)cc1)N1C[C@@H]2N[C@H](C1)[C@@H]2c1ccc(-c2cccnc2)cc1
- AC50 [21]: 14.6 nM (active)
- AC50 [22]: 22 nM (active)
- AC50 [23]: 18.6 µM (active)
- AC50 [20]: 1.12 µM (active)
- AC50 [24]: 35.4 nM (active)

Compound: COC(=O)c1ccc(-n2c(C)cc(C(=O)CSc3ccc(N(C)C(C)=O)cc3)c2C)cc1
- EC50 [25]: 10 µM (active)

Compound: CCOC(=O)c1c(-c2ccc(C(C)(C)C)cc2)csc1NC(=O)CN1CCN(CC)CC1
- AC50 [26]: 15.3 µM (active)
- AC50 [27]: 11.9 µM (active)
- AC50 [28]: 9.03 µM (active)

Compound: Cc1cc2c(OCC(CNC(C)(C)C)OC(=O)c3ccccc3)cccc2[nH]1 (stereo unspecified) [BOPINDOLOL]
- IC50 [29]: 14.6 µM (inactive)
- IC50 [30]: > 33.3 µM (inactive)
